Data as given in ChEMBL document CHEMBL4406823 (Eur J Med Chem, 2019).

Assays:
[1] = tested on: MCF7; assay: cells; conditions: Homo sapiens, MCF7, 72 h
Description: Antiproliferative activity against human MCF7 cells assessed as inhibition of cell proliferation incubated for 72 hrs by MTT assay

[2] = tested on: MDA-MB-231; assay: Antiproliferative activity against human MDA-MB-231 cells assessed as inhibition of cell proliferation incubated for 72 hrs by MTT assay; assay type: functional, cell-based; conditions: MDA-MB-231, 72 h
[3] = tested on: HL-60; assay: Antiproliferative activity against human HL60 cells assessed as inhibition of cell proliferation incubated for 72 hrs by MTT assay; assay type: functional, cell-based; conditions: HL-60, 72 h
[4] = tested on: SEM cells; assay: Antiproliferative activity against human SEM cells assessed as inhibition of cell proliferation incubated for 72 hrs by MTT assay; assay type: functional, cell-based
[5] = tested on: HeLa; assay: cells; conditions: Homo sapiens, 72 h
Description: Antiproliferative activity against human HeLa cells assessed as inhibition of cell proliferation incubated for 72 hrs by MTT assay

[6] = tested on: HT-29; assay: cells; conditions: Homo sapiens, HT-29, 72 h
Description: Antiproliferative activity against human HT-29 cells assessed as inhibition of cell proliferation incubated for 72 hrs by MTT assay

[7] = target: T1, Tubulin (Bos taurus) (UniProt Q6B856+Q862L2+Q862F3); assay: Displacement of [3H]-colchicine from bovine brain tubulin at 5 uM incubated for 1 hr by relative to control
[8] = target: Tubulin (Bos taurus, UniProt Q6B856+Q862L2+Q862F3); assay: Inhibition of bovine brain tubulin assembly using GTP as substrate incubated for 20 mins by spectrophotometric method
[9] = target: T1, Tubulin (Bos taurus); assay: Displacement of [3H]-colchicine from bovine brain tubulin at 0.5 uM incubated for 1 hr by relative to control

Row | SMILES | IC50 [1] | IC50 [2] | IC50 [3] | IC50 [4] | IC50 [5] | IC50 [6] | inhibition [7] | IC50 [8] | inhibition [9]
1 | COc1cc(-c2n[nH]cc2-c2ccc(C(F)(F)F)cc2)cc(OC)c1OC | 4380 nM | 523 nM | 179 nM | 187 nM | 227 nM | 67.4 nM |  |  | 
2 | COc1ccc(-c2c[nH]nc2-c2cc(OC)c(OC)c(OC)c2)cc1Cl | 1390 nM | 21.5 nM | 17 nM | 2.4 nM | 1.4 nM | 0.2 nM | 85% | 520 nM | 
3 | COc1cc(-c2n[nH]cc2-c2cc(C)c(OC)c(C)c2)cc(OC)c1OC | > 10000 nM | > 10000 nM | > 10000 nM | 3340 nM | > 10000 nM | > 10000 nM |  |  | 
4 | COc1cc(-c2n[nH]cc2-c2ccc3ccccc3c2)cc(OC)c1OC | 21.4 nM | 28.4 nM | 9.4 nM | 3.3 nM | 6.6 nM | 8.1 nM | 91% | 410 nM | 68%
5 | CCOc1ccc(-c2c[nH]nc2-c2cc(OC)c(OC)c(OC)c2)cc1Cl | 4.5 nM | 6.9 nM | 1.5 nM | 1.4 nM | 1.6 nM | 4.2 nM | 90% | 390 nM | 62%
6 | COc1ccc(/C=C\c2cc(OC)c(OC)c(OC)c2)cc1O [COMBRETASTATIN A4] |  | 4.5 nM |  | 5.1 nM |  |  |  |  | 
7 | COc1cc(-c2c[nH]nc2-c2ccc(C)cc2)cc(OC)c1OC | 700 nM | 262 nM | 31.4 nM | 14.7 nM | 25.2 nM | 44.4 nM | 86% | 570 nM | 
8 | COc1ccc(-c2n[nH]cc2-c2cc(OC)c(OC)c(OC)c2)cc1 | 2.6 nM | 0.9 nM | 2.1 nM | 0.4 nM | 1.9 nM | 0.8 nM | 93% | 340 nM | 79%
9 | COc1cc(-c2n[nH]cc2-c2ccc(SC)cc2)cc(OC)c1OC | > 10000 nM | 3650 nM | 40.9 nM | 30.1 nM | 28.7 nM | 51.3 nM | 85% | 570 nM | 
10 | COc1ccc(-c2c[nH]nc2-c2cc(OC)c(OC)c(OC)c2)cc1C | > 10000 nM | 2680 nM | 17.7 nM | 17.2 nM | 32.9 nM | 37.3 nM | 81% | 440 nM | 
11 | COc1cc(-c2n[nH]cc2-c2cc3ccccc3s2)cc(OC)c1OC | 1.4 nM | 2.5 nM | 2.3 nM | 0.5 nM | 1.7 nM | 7.4 nM | 93% | 300 nM | 69%
